Measurements taken from paper PMC6315362, “Cytotoxic Potential of the Novel Horseshoe Crab Peptide Polyphemusin III” (Marine Drugs, 2018).
Where a SMILES comes first, the peptide text is derived from it. Bridges are numbered along the chain shown (N, C = ends).

Test system: HL-60 cells
Experiment: Lactate dehydrogenase (LDH)-release assay
Type: cell-based, human
Conditions: HL-60, 1 h of incubation, 1.56–25 μM, RPMI serum-free medium; two independent series of triplicated experiments
Description: The loss of membrane integrity, detected by trypan blue exclusion assay and annexin V-FITC/propidium iodide double staining, was also evaluated by lactate dehydrogenase (LDH)-release. The cytosolic enzyme LDH is released upon cell lysis and therefore can be a marker of cell integrity. The percentage of LDH-leakage from cells enables evaluation of direct cell lysis.
The LDH-release assay (CytoTox 96 Non-Radioactive Cytotoxicity Assay; Promega Corporation, Madison, WI, USA) was performed according to the manufacturer’s protocol. Suspension HL-60 cells (4 × 10^4) were seeded into a 96-well plate in triplicate and incubated for 1 h with various concentrations of polyphemusin III at 100 μL per well in RPMI serum-free medium. Untreated cells served as a control for spontaneous LDH-release and cells treated with 1% Triton X-100 were used as a control for maximal LDH-release. Absorbance was measured at 490 nm using a microplate reader (Eppendorf, Hamburg, Germany). Percent LDH-release was calculated using the following Equation (2):[(experimental LDH-release − spontaneous LDH-release)/(maximal LDH-release − spontaneous LDH-release)] × 100(2)
The dose response curve shown is an average of two independent experiments.

CC(C)[C@@H]1NC(=O)[C@H](CCCNC(=N)N)NC(=O)[C@H](Cc2ccccc2)NC(=O)[C@@H](NC(=O)CNC(=O)[C@H](CCCNC(=N)N)NC(=O)[C@@H](N)CCCNC(=N)N)CSSC[C@@H](C(=O)N[C@@H](CCCNC(=N)N)C(=O)O)NC(=O)[C@H](CCCNC(=N)N)NC(=O)[C@H](CCC(N)=O)NC(=O)[C@H](Cc2ccccc2)NC(=O)[C@@H]2CSSC[C@H](NC1=O)C(=O)N[C@@H](Cc1ccc(O)cc1)C(=O)N[C@@H](CCCNC(=N)N)C(=O)NCC(=O)N[C@@H](Cc1ccccc1)C(=O)N2 [PM III, polyphemusin III] (H-RRGCFRVCYRGFCFQRCR-OH; disulfide 4-17, 8-13 (inferred); N-terminus assumed)
LDH-release (cell lysis): concentration-dependent lysis
